Measured values: patent US20220409646A1, “MALTOSYL-ISOMALTO-OLIGOSACCHARIDES REDUCE SYMPTOMS OF GASTROESOPHAGEAL REFLUX DISEASE” (ISOThrive Inc., priority 2021, published 2022)

System: subjects with GERD
Settings: human, in vivo
Description: The study began in March 2020 when a total of 110 subjects were screened for GERD using stringent eligibility criteria by the study coordinator and the principal investigator. […] The subjects acted as their own controls and there was no placebo arm. All subjects had active symptoms as determined by verbal history and daily ReQuest (RQ) validated GERD questionnaire symptom scores above specified thresholds, or GERD symptoms at four or more days per week.
As of May 2021, 44 subjects had completed the following protocol. […] Symptom evaluation for each included: RQ_GI: acid and abdominal (upper/lower) complaints, nausea; RQ_WSO: general well-being, sleep disturbances, and other complaints; and RQ_TOT: the sum of both. The Short Form 36 Health Survey validated questionnaire (see webpage physio-pedia.com/36-Item_Short_Form_Survey_(SF-36)) was used to assess quality of life. The SF-36 form was completed by subjects on day seven of week zero as well as on each day seven per week during the study duration. The subjects had to report any usage of GERD medications such as PPIs, H2 antagonists, and acids throughout the study, as well as any changes in their other medications. The primary endpoint was tolerability, defined as ending on week four with a request symptom score and a SF-36 score that was at or better than the baseline week zero score (determined as >0% reduction in weekly mean RQ symptom scores as % from baseline to week 4). Statistical analysis was done using the Wilcoxon signed-rank test with multiple comparison correction. In addition, a comparison was made of the number of days without acid complaints per week, or the heartburn-free days per week, for week four compared to the week zero baseline.
It was taken 1 g daily at bedtime.
All subjects had active GERD symptoms as determined by the ReQuest validated GERD specific questionnaire and/or GERD symptoms at least 4 days per week. […] All subjects were screened per the eligibility criteria delineated in this protocol by the study coordinator. The study was done remotely. There was communication but no in person contact or visits with the study coordinator.
Two phases were designed into this study. Phase 1 was the Screening Phase (SP). Phase 2 was the Tolerability Phase (TP). Subjects were instructed to take a daily GERD symptom questionnaire, the ReQuest Short Version, daily throughout the study. At five timepoints, specific scores were established for comparison and statistical analysis.

maltosyl-isomaltooligosaccharides [ISOT-101]
ISOT-101-related adverse events: no ISOT-101-related adverse events
nausea, number of patients: 2 patients
nausea, share of patients: 5%
subjects who either did not improve or got worse: Five
tolerability (in words): well tolerated
worsening of RQ_GI (gastrointestinal symptoms), number of subjects: 5 of 44
worsening of RQ_TOT (total scores), number of subjects: 4 of 44
worsening of RQ_TOT (total scores), share of subjects: 9%
